Data from patent US20110105608A1, “MODULATORS OF NUCLEAR RECEPTOR CO-REGULATORY PROTEIN BINDING” (NORTHEASTERN UNIVERSITY, priority 2008, published 2011).
Values joined by “and” are separate entries in the source; they are usually repeats but may differ in a detail not shown here. Equal entries are not always repeated. Where two headings read alike, the source gives them in different places.

Legend:
[1] = molecular target: T1, ERα-417 / SRC-3-NRD (Homo sapiens, UniProt P03372, C381S/C530S); test: In vitro coactivator binding inhibitor TR-FRET CBI assay (displacement of SRC3); settings: * = very small dynamic range compared to positive control
T1 sequence (P03372 304-554 C381S/C530S limits assumed): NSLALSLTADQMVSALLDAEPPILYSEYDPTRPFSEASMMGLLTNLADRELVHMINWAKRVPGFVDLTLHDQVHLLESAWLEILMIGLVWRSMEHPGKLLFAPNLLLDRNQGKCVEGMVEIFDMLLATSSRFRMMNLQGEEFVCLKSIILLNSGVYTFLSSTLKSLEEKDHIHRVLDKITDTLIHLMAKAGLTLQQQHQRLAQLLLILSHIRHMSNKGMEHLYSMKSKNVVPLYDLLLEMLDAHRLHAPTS
From the text: (§1) The protocols for both the time-resolved fluorescence resonance energy transfer (TR-FRET) assay and the cell-based reporter gene assay can be found in Parent, et al. (2008) J. Med. Chem. 51(20):6512-30. A 15-mer SRC1-Box II peptide and a published guanylhydrazone CBI (Lafrate et al., (2008) Bioorg. Med. Chem. 2008:16(23)) were used as positive controls in the TR-FRET and reporter gene assays, respectively.
Purified ERα-417, labeled site-specifically with maleimide-biotin (Quanta BioDesign) and SRC-3-NRD, labeled nonspecifically through cysteine residues with iodoacetamide-fluorescein (Invitrogen), were used in the TR-FRET assays. […]. In a second 96-well Nunc polypropylene plate (Nalge Nunc International, Rochester, N.Y.), a 0.02 M solution of each coactivator binding inhibitor was serially diluted in a 1:10 fashion into DMF. Each concentration of coactivator binding inhibitor or vehicle was then diluted 1:10 into TR-FRET buffer, and 10 μL of this solution was added to the stock […] solution in the 96-well plate. After a 20 min incubation, 5 μL of 200 nM fluorescein-SRC-3-NRD was added to each well. This mixture was allowed to incubate for 1 h at RT in the dark. TR-FRET was measured using an excitation filter at 340/10 nm and emission filters for terbium and fluorescein at 495/20 and 520/25 nm, respectively. […].
The results are shown in FIGS. 1A and 1b and show the displacement of the SRC3. The peptide control has an IC50 of about 1 uM.

[2] = molecular target: T2, full-length ER alpha (Homo sapiens, UniProt P03372); test: Cell-based luciferase reporter gene assay (2ERE Luc) in HEC-1 cells; settings: * = very small dynamic range compared to positive control
T2 construct: 100 ng of full-length ER alpha expression vector; expressed in transfected cells; host or cells: HEC-1 (human endometrial cancer) cells
T2 sequence (P03372 1-595): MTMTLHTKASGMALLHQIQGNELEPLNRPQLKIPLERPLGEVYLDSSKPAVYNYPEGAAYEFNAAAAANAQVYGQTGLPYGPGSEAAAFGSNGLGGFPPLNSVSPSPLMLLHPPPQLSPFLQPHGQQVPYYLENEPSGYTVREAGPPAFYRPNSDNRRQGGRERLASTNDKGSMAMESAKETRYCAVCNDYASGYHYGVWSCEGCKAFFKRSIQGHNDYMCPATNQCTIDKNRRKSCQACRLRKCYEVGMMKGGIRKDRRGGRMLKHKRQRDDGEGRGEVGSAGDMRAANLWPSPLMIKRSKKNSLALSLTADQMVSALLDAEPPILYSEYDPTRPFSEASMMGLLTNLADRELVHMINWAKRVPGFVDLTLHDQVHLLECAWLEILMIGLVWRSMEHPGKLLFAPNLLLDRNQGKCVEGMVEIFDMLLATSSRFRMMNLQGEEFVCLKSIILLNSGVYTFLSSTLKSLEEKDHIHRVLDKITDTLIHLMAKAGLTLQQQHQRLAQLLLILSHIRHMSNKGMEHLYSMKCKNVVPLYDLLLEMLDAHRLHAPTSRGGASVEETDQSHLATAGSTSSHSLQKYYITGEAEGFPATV
From the text: as §1
Human endometrial cancer (HEC-1) cells were maintained in culture and transfected in 24 well plates. HBSS (50 μL/well), Holo-transferrin (Sigma T1408) (20 μL/well), and lipofectin (Invitrogen no. 18292-011) (5 μL/well) were incubated together at RT for 5 min. A DNA mixture containing 200 ng of pCMVβ-galactosidase as an internal control, 500 ng of the estrogen responsive reporter gene plasmid 2ERE Luc, and 100 ng of full-length ER alpha expression vector with 75 μL of HBSS per well was added to the first mixture and allowed to incubate for 20 min at RT. After changing the cell media to Opti-MEM (350 μL/well), 150 μL of the transfection mixture was added to each well. The cells were incubated at 37° C. in a 5% CO2 containing incubator for 6 h before the medium was replaced with fresh medium containing 5% charcoal-dextran-treated calf serum and the desired concentrations of ligands. Luciferase reporter gene activity was assayed 24 h after ligand addition.
In the initial screen, compounds were assayed in a dose-response format at concentrations ranging from 20 μM to 0.6 μM; […]. Upon validation of antagonistic activity, mechanism of action was examined by repeating the compound titration in the presence of both 10^-7 and 10^-9 M E2 with an expectation that changing the concentration of E2 100-fold would not change the IC50 of true coactivator binding inhibitors. These assays was also repeated to confirm results. The positive control is a guanyl hydrazone.

[3] = molecular target: T3, purified full-length human ERα (Homo sapiens, UniProt P03372); test: Estrogen receptor relative binding affinity assay, competitive radiometric, [3H]estradiol tracer; settings: RBA of estradiol set to 100%, 18-24 h at 0° C.
T3 construct: purified full-length human ERα and ERβ were purchased from PanVera/Invitrogen; purchased PanVera/Invitrogen (Carlsbad, Calif.)
T3 sequence (P03372 1-595): T2 sequence (P03372 1-595)
Experimental: (§2) Relative binding affinity assays were run to determine whether the compounds of this disclosure are traditional ligands that compete with estradiol. […]; purified full-length human ERα and ERβ were purchased from PanVera/Invitrogen (Carlsbad, Calif.). Incubations were conducted for 18-24 h at 0° C. Hydroxyapatite (BioRad, Hercules, Calif.) was used to absorb the receptor-ligand complexes, and free ligand was washed away. The binding affinities are expressed as relative binding affinity (RBA) values with the RBA of estradiol set to 100%. […]

[4] = molecular target: T4, purified full-length human ERβ (Homo sapiens, UniProt Q92731); test: as above; settings: RBA of estradiol set to 100%, 18-24 h at 0° C.
T4 construct: purified full-length human ERα and ERβ were purchased from PanVera/Invitrogen; purchased PanVera/Invitrogen (Carlsbad, Calif.)
T4 sequence (Q92731 whole entry): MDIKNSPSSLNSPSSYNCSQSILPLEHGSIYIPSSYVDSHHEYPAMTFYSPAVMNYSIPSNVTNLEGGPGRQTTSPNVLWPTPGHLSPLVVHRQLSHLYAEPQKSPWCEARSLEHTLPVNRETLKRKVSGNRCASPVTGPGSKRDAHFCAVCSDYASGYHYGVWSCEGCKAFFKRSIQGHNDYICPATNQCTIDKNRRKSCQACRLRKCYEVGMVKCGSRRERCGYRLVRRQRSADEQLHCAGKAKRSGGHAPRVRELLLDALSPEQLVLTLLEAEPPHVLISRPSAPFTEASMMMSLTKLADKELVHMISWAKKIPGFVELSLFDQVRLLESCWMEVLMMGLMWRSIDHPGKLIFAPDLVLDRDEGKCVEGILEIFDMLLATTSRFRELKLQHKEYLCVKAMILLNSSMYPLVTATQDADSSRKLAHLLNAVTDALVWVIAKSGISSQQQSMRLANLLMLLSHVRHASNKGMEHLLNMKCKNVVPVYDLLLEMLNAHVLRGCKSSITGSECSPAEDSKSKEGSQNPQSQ
Experimental: as §2

[5] = molecular target: T5, endogenous ERα in MCF7 cells (Homo sapiens, UniProt P03372); test: RBA assay, competition with 3H-estradiol in MCF7 cells; type: binding; settings: 1 nM 3H-estradiol
T5 construct: the endogenous ERα in MCF7 cells; endogenous in cells; host or cells: MCF7 breast cancer cells
T5 sequence (P03372 1-595): T2 sequence (P03372 1-595)
Experimental: The RBA assay was performed to examine the ability of the compounds to compete for the binding of 1 nM of 3H-estradiol to the endogenous ERα in MCF7 cells.

[6] = tested on: cells; test: Toxicity to cells seen in the mammalian two hybrid dose-finding assay; type: cell-based, Human; settings: FIG. 4; 5-40 μM in cell culture
Experimental: (§3) Human cervical cancer (HeLa) and hepatoma (HepG2) cells were cultured in minimum essential medium (Life Technologies, Inc.) supplemented with 10% fetal bovine serum (HyClone), 0.1 mM nonessential amino acids, and 1 mM sodium pyruvate (Life Technologies, Inc.) and maintained in a humidified 37° C. incubator with 5% CO2. For transient transfections, cells were split into 24-well plates 24 h before transfection. Lipofectin (Life Technologies, Inc.)-mediated transfection has been described in detail previously (27). A DNA-Lipofectin mixture containing a total of 3,000 ng of plasmid in each of triplicate samples was incubated with cells for 3 to 5 h, and transfection was stopped by replacing the transfection mix with fresh medium (minimal essential medium without phenol red) containing 10% charcoal-stripped serum. Receptor ligands were added to the cells 14 to 16 h before the assay. Luciferase and (3-galactosidase activities were measured. In mammalian two-hybrid assays, for a typical triplicate of transfection, 2,000 ng of 5×Gal4Luc3 reporter plasmid, 400 ng of receptor-VP16 fusion, 400 ng of pM (Gal4 DBD)-peptide fusion constructs, and 200 ng of normalization plasmid pCMVβgal were used. For ER transcription disruption assays, 1,600 ng of 3 XERE-TATA-Luc reporter, 200 ng of pCMVβgal, 400 ng of either pRST7ERα, pRST7ERβ, or other receptor mutant constructs, and 0 to 800 ng of pM-peptide fusion plasmids were used. The parent pM vector (Gal4DBD without peptide fusion) was used in these experiments to balance the amount of input DNA in transfections. All transfections were performed at least three times.
(§4) A second assay with another group of compounds was performed to determine the proper dose for use in cell culture. Compounds were used at concentrations between 5-40 μM. The mammalian two hybrid assay was used to examine the interaction between ERα and the LXXLL2 peptide from the coactivator GRIP1. #82 and OH-tam were used as controls.
AW78 was also effective. […] AW77 was very toxic to cells at the high concentrations tested.

[7] = molecular target: T6, interaction between ERα and the LXXLL2 peptide from the coactivator GRIP1 (Homo sapiens, UniProt P03372); test: Mammalian two hybrid assay; type: cell-based; settings: FIG. 4; for Effect on the LXXLL-ER interaction: second assay, 5-40 μM
T6 construct: expressed in transfected cells
T6 sequence (P03372 1-595): T2 sequence (P03372 1-595)
Experimental: The Mammalian Hybrid Assay used a similar procedure as described in Chang et al., Molec. & Cellul. Biol., (1999) 19:12 8226-8239 except the compounds shown in Table 1, supra, were used instead of phage-derived peptides.
as §3
The mammalian two hybrid assay assessed whether the compounds disrupt the interaction between ERα and an LXXLL peptide derived from an ER coactivator (GRIP1). OH-tam is an ERα antagonist and was used as a positive control.
as §4

[8] = estradiol 1 μM, read-out: TR-FRET IC50
[9] = repeat run, read-out: TR-FRET Repeat
[10] = HEC-1 cells, in the presence of estradiol, read-out: Reporter Gene IC50
[11] = repeat run, read-out: Reporter Gene IC50 (μM) - repeat

## CN(C)CCOc1ccc(-c2ccc(OCC(=O)O)cc2)cc1 [PW-83]
[1]; [8]
  IC50: 205 µM
[1]; [9]
  IC50: 2050 µM
[2]; [10]
  IC50: 5.8 µM
[2]; [11]
  IC50: 18 µM
[3]
  ERα RBA: <0.001%
[4]
  ERβ RBA: <0.001%
[5]
  Competition for the binding of 3H-estradiol: competed

## CCOC(=O)COc1ccc(-c2ccc(O)c(Cc3ccccc3)c2)cc1Cc1ccccc1 [PW-77]
[6]
  Toxicity to cells: very toxic

## CCOC(=O)COc1ccc(-c2ccc(O)c(C(C)C)c2)cc1C(C)C [PW-74]
[7]; tested at 5-40 μM
  Concentration at which the ERα-LXXLL2 interaction is inhibited: about 40 μM
[6]
  Toxicity to cells: no significant toxicity

## CC(C)c1cc(-c2ccc(OCC(=O)O)c(C(C)C)c2)ccc1OCCN(C)C [PW-80]
[1]; [8]
  IC50: 55 µM
[1]; [9]
  IC50: 583 µM
[2]; [10]
  IC50: 21 µM
[3]
  ERα RBA: <0.001%
[4]
  ERβ RBA: <0.001%

## CCOC(=O)COc1ccc(-c2ccc(OCCN(C)C)c(Cc3ccccc3)c2)cc1Cc1ccccc1 [PW-78]
[7]
  Effect on the LXXLL-ER interaction: induced LXXLL-ER interaction

## CCOC(=O)COc1ccc(-c2ccc(OCCN(C)C)c(C(C)C)c2)cc1C(C)C [PW-76]
[7]
  Effect on the LXXLL-ER interaction: induced LXXLL-ER interaction

## CN(C)CCOc1ccc(-c2ccc(OCC(=O)O)c(Cc3ccccc3)c2)cc1Cc1ccccc1 [PW-81]
[1]; [8]
  IC50: 163 µM
[1]; [9]
  IC50: 1100 µM
[2]; [10]
  IC50: 13 µM
[3]
  ERα RBA: <0.001%
[4]
  ERβ RBA: ~0.001%
[5]
  Competition for the binding of 3H-estradiol: did not compete

## CCOC(=O)COc1ccc(-c2ccc(OCCN(C)C)c(C(C)CC)c2)cc1C(C)CC (stereo not drawn) [AW-79]
[7]
  Effect on the LXXLL-ER interaction: induced LXXLL-ER interaction
[6]
  Toxicity to cells: toxic at a high dose

## CN(C)CCOc1ccc(-c2ccc(OCC(=O)O)c(C(C)(C)C)c2)cc1C(C)(C)C [AW-82]
[2]; [10]
  IC50: 6 µM
[3]; listed as AW-III-82-56
  ERα RBA: 0.055% and 0.038% and 0.049 ± 0.016%
[4]; listed as AW-III-82-56
  ERβ RBA: 0.018% and 0.017% and 0.018 ± 0.001%
[5]
  Competition for the binding of 3H-estradiol: competed

## CCOC(=O)COc1ccc(-c2ccc(O)cc2)cc1 [AW-84]
[7]
  Effect on the LXXLL-ER interaction: induced LXXLL-ER interaction

## CCOC(=O)COc1ccc(-c2ccc(O)c(C(C)(C)C)c2)cc1C(C)(C)C [AW-73]
[7]
  Effect on the LXXLL-ER interaction: induced LXXLL-ER interaction

## CCC(C)c1cc(-c2ccc(OCC(=O)O)c(C(C)CC)c2)ccc1OCCN(C)C (stereo not drawn) [AW-87]
[1]; [8]
  IC50: 87 µM
[1]; [9]
  IC50: 227 µM
[2]; [10]
  IC50: 1.8 µM
[2]; [11]
  IC50: 6 µM
[3]
  ERα RBA: ~0.001%
[4]
  ERβ RBA: ~0.001%

## CCOC(=O)COc1ccc(-c2ccc(O)c(C(C)CC)c2)cc1C(C)CC (stereo not drawn) [AW-78]
[7]
  Effect on the LXXLL-ER interaction: effective

## CCOC(=O)COc1ccc(-c2ccc(OCCN(C)C)cc2)cc1 [PW-82]
[7]
  Effect on the LXXLL-ER interaction: induced LXXLL-ER interaction
